{"source": "patent US8445539B2", "about": "“Alpha-aminoamide derivatives useful in the treatment of psychiatric disorders” (priority 2007, dated 2013)", "key": {"[1]": {"system": "NMDA receptor complex", "assay": "Inhibition of NMDA receptor complex, whole cell patch clamp in cortical neurons", "format": "cell-based", "details": "primary rat cortical neurons; holding -70 mV; NMDA 100 μM + glycine 10 μM; read-out: IC50 of NMDA-induced currents", "description": "Cortical neurons were prepared from embryonic Wistar rats (E17-E19). A female rat at date 17-19 of pregnancy was anesthetized and sacrificed. The foetuses (n=4-5) were dissected and placed in ice-cold Hank's solution (Hank's solution (Life tech. 14170-088)+glucose 30%+Pen-Strep 100× (Life Tech. 15140-122) 100 U-100 μg/mL and Hepes-NaOH 5 mM).\nThe brain of the foetuses was cut in two halves, and each cortex was cut in smaller parts with a scissors, the pieces were transferred to a 15 mL centrifuge tube using a 5 mL pipette and washed twice with Hank's solution. […]\nCells were counted and diluted in Neurobasal medium to a concentration of 400000 cells per poly-D-lysine 5 μg/mL treated Petri dish. […]\nExperiments on cortical neurons were carried out using standard whole cell patch clamp methods (Hamill et al., 1981. Pflügers Archly: European Journal of Physiology 391(2):85-100). Membrane currents were recorded and filtered at 5 kHz with an Axon Axopatch 200B amplifier and data digitized with an Axon Digidata 1322A (Axon Instruments, CA, USA). […]\nData were analyzed using Clampfit 9 (Axon Instruments, CA) and Origin 7.5 (Microcal Inc., Northampton, Mass., USA) software. Data points and results were expressed as arithmetic mean±S.E. […]"}, "[2]": {"system": "anxiety-like behaviour in Open Field", "assay": "Anxiety open field test", "format": "in vivo", "details": "open field test in rats", "from_the_text": "The Open Field test is commonly used to assess locomotor, exploratory and anxiety-like behaviour in rats or mice. This test is particularly useful in evaluating the effects of anxiolytic and anxiogenic drugs, locomotor responses to drug and as well as behavioural responses to novelty.\nThe Open Field test task approaches the conflict between the innate fear that rats have of the central area of a novel or brightly lit open field versus their desire to explore new environments. When anxious, the natural tendency of rodents is to prefer staying closed to the walls (thigmotaxis). In this context, anxiety-related behaviour is measured by the degree to which the rat avoids the center of the Open Field test.\nThe Open Field arena consists of an empty and bright square arena surrounded by walls to prevent animal from escaping. The arena (90 cm×90 cm×40 cm height) was divided into 6×6 grid of equally-sized squares using black tape. […]\nThe rat is placed in the center of the arena and its behaviour recorded on video over a chosen period (from 5 to 15 min) and scored.\nTime spent in each category of square is recorded. In addition, the fifteen minute open-field test is divided into 3 blocks of 5 minutes and total locomotor activity is scored as the number of square entries in each five minute block. […] Finally, the latency to visit the large centre and any one of the four corners is scored manually. […]"}, "[3]": {"system": "marble burying behaviour", "assay": "Marble Burying test", "format": "in vivo", "details": "80 mg/kg po; 30 min before test; CD1 mice; FIG. 1", "from_the_text": "The Marble Burying Test is considered an animal model of anxiety/obsessive-compulsive disorder (OCD). Mice which are placed individually in a cage containing a number of glass marbles spontaneously tend to bury the glass marbles present.\nSeveral compounds which attenuate anxiety, depression, psychosis or obsessive-compulsive disorders affect this behaviour reducing the number of marbles buried. Therefore the test has predictive validity for anti-anxiety and anti-OCD potential compounds.\nCD1 mice were injected with ralfinamide at the doses of 10, 30, 60 and 80 mg/kg, po; fluoxetine (FLX) at 10 mg/kg, sc or saline and returned to their home cage. After 30 min (ralfinamide) or 60 min (fluoxetine), mice were individually placed in a new cage contained 12 evenly spaced glass marbles. After 30 min mice were removed from the cages and the number of glasses buried for at least two-thirds in the sawdust was counted.\nOne-way ANOVA followed by Bonferroni's multiple comparison test; n=6-8 mice per group *p<0.05; p***<0.001 versus control group"}}}
{"smiles": "C[C@H](NCc1ccc(OCc2ccccc2F)cc1)C(N)=O", "note": "[Ralfinamide methanesulfonate, (S)-(+)-2-[4-(2-fluorobenzyloxy)benzylamino]propanamide]", "values": [{"measurement": "IC50", "setting": "[1]", "value": 7.3, "unit": "µM"}, {"measurement": "Activity in anxiety animal model (Example 6)", "setting": "[2]", "value": "active"}, {"measurement": "Number of buried marbles", "setting": "[3]", "value": "significantly reduces"}]}
